3 molecules from patent US11981696B2, “Fluoro-pyridinone phosphates and boronates useful as antibacterial agents” (Pfizer Inc., priority 2018, dated 2024) can be followed below.

Values after ≈ are worked out from the molar mass of the structure shown.

The subject of data set [1] is Klebsiella pneumoniae KP-3700. The data set is described as follows: MIC determination (CLSI), KP-3700. In kind it is cell-based. To be noted: ciprofloxacin-resistant, ESBL clinical isolate; lower of duplicate values. The procedure:
(§1) B) MIC determinations: The in vitro antibacterial activity of compounds was evaluated by minimum inhibitory concentration (MIC) testing according to Clinical and Laboratory Standards Institute (CLSI). See: Clinical and Laboratory Standards Institute. Methods for Dilution Antimicrobial Susceptibility Tests for Bacteria that Grow Aerobically; Approved Standard-Eighth Edition. CLSI document M7-A8 [ISBN 1-56238-689-1]. Clinical and Laboratory Standards Institute, 940 West Valley Road, Suite 1400, Wayne, Pennsylvania 19087-1898 USA, 2006; also Clinical and Laboratory Standards Institute. Performance Standards for Antimicrobial Susceptibility Testing; Twentieth Informational Supplement. CLSI document M100-S20 [ISBN1-56238-716-2]. Clinical and Laboratory Standards Institute.
(§2) The MIC determination is a standard laboratory method for evaluating the antibacterial activity of a compound. […] The MIC is then determined by visually inspecting the drug effect at each concentration, and identifying the lowest drug concentration that has inhibited bacterial growth as compared to the drug free control. […]
(§3) The MIC values described in Table 3 below were derived from assays wherein each test compound was evaluated in duplicate. […] While a single MIC is reported for each compound and each microorganism, the reader should not conclude that each compound was only tested once. […]

In data set [2] the test system is Acinetobacter baumannii/haemolyticus AB-3167. The data set is described as follows: MIC determination (CLSI), AB-3167. To be noted: multidrug-resistant clinical isolate, lower of duplicate values. It is filed as cell-based. How it is done:
as §1, §2, §3

Data set [3] can be described thus: Solubility in normal saline. To be noted: saline or isotonic. In kind it is physicochemical.
Data set [4] concerns Pseudomonas aeruginosa UI-18 (PA-7). Put plainly: MIC determination (CLSI), PA-7. It is filed as cell-based. The settings on record: wild-type UI-18, lower of duplicate values. How it is done:
as §1, §2, §3

Another data set relates to Escherichia coli EC-1. Put plainly: MIC determination (CLSI), EC-1. It is filed as cell-based. To be noted: EC1, read-out: EC-1 MIC. The procedure: as §1, §2, §3
Another data set relates to hepatocytes from dog. The data set is described as follows: In vitro hepatocyte study, dog. In kind it is in vitro ADME. To be noted: concomitant appearance of parent compound and its glucuronide metabolite. The source says:
(§4) In vitro hepatocyte study: The disposition of (2R)-4-[5-fluoro-4-(2-fluoro-4-methoxyphenyl)-2-oxopyridin-1(2H)-yl]-N-hydroxy-2-methyl-2-(methylsulfonyl) butanamide phosphate was examined in hepatocytes from mouse, rat, dog, monkey and human. In each case, qualitatively it was observed that the (2R)-4-[5-fluoro-4-(2-fluoro-4-methoxyphenyl)-2-oxopyridin-1(2H)-yl]-N-hydroxy-2-methyl-2-(methylsulfonyl) butanamide phosphate disappeared, concomitant with appearance of (2R)-4-[5-fluoro-4-(2-fluoro-4-methoxyphenyl)-2-oxopyridin-1(2H)-yl]-N-hydroxy-2-methyl-2-(methylsulfonyl) butanamide (parent compound) and a glucuronide metabolite of the parent compound. In Vivo Studies

Another data set relates to hepatocytes from monkey. Put plainly: In vitro hepatocyte study, monkey. In kind it is in vitro ADME. To be noted: concomitant appearance of parent compound and its glucuronide metabolite.
Source text: as §4

Another data set has as its system hepatocytes from human. Put plainly: In vitro hepatocyte study, human. It is filed as in vitro ADME. To be noted: concomitant appearance of parent compound and its glucuronide metabolite.
Source text: as §4

The subject of another data set is hepatocytes from rat. The data set is described as follows: In vitro hepatocyte study, rat. It is filed as in vitro ADME. To be noted: concomitant appearance of parent compound and its glucuronide metabolite.
Source text: as §4

The test system of a further data set is hepatocytes from mouse. The data set is described as follows: In vitro hepatocyte study, mouse. In kind it is in vitro ADME. To be noted: concomitant appearance of parent compound and its glucuronide metabolite.
Source text: as §4

Consider `COc1ccc(-c2cc(=O)n(CC[C@](C)(C(=O)NO)S(C)(=O)=O)cc2F)c(F)c1` [Parent Compound, (2R)-4-[5-fluoro-4-(2-fluoro-4-methoxyphenyl)-2-oxopyridin-1(2H)-yl]-N-hydroxy-2-methyl-2-(methylsulfonyl)butanamide], for which the “KP-3700 MIC” value in [1] turned out to be 0.5 µg/mL. In addition, the values for the MIC (in [2]; in [4]; in the data set on Escherichia coli EC-1) were more than 64 µg/mL, 0.5 µg/mL (≈ 1.16 µM) and 0.25 µg/mL (≈ 0.581 µM), respectively. This molecule also came in with a solubility in [3] of less than 1 mg/mL.

`COc1ccc(-c2cc(=O)n(CC[C@](C)(C(=O)NOP(=O)(O)O)S(C)(=O)=O)cc2F)c(F)c1` [Example 1, (2R)-4-(5-fluoro-4-(2-fluoro-4-methoxyphenyl)-2-oxopyridin-1(2H)-yl)-2-methyl-2-(methylsulfonyl)butanamido phosphate]: the “disposition in hepatocytes (qualitative)” value in the data set with hepatocytes from dog, in the data set on hepatocytes from monkey, in the data set on hepatocytes from human, with hepatocytes from rat and in the data set on hepatocytes from mouse was “disappeared” throughout.

In [3], `COc1ccc(-c2cc(=O)n(CC[C@](C)(C(=O)NOP(=O)([O-])[O-])S(C)(=O)=O)cc2F)c(F)c1.[Na+].[Na+]` [Example 3, (R)-4-(5-fluoro-4-(2-fluoro-4-methoxyphenyl)-2-oxopyridin-1(2H)-yl)-2-methyl-2-(methylsulfonyl)butanamido phosphate, Disodium Salt] registered a solubility not below 20 mg/mL.

By MIC is commonly meant the smallest concentration in the dilution series that meets the test's criterion for growth inhibition. By solubility is commonly meant the concentration that dissolves in the medium under given conditions.
